Source: patent US6046231A, “Use of 4'-bromoflavone in a cancer chemopreventative composition and method” (The Board of Trustees of the University of Illinois, priority 1999, dated 2000)

Assays:
[1] = test system: quinone reductase (QR), Hepa 1c1c7 cells; assay: Quinone reductase (QR) induction in Hepa 1c1c7 cells; format: cell-based, murine
Text: This test was used because the specific activity of QR rises concomitantly with other phase II enzymes in many animal tissues in response to various chemopreventive agents. The study included natural and synthetic B-ring substituted flavones, as well as biosynthetic precursor chalcones and flavanones.
Determination of Quinone Reductase Activity in Cell Cultures. To determine the potency of inducers, Hepa 1c1c7 murine hepatoma cells as described in the Gerhauser publication were placed in 96-well plates at a density of 1×10^4 cells/ml in 200 μl of medium. After a preincubation period of 24 hr, the media were decanted and 190 μl fresh media were added to each well. Ten (10) μl test agents dissolved in 10% DMSO (final concentration of DMSO is 0.5%) with a serial 2-fold dilutions were introduced to each well, and the plates were incubated for an additional 48 hours. Specific QR activity was determined by measuring the NADPH-dependent menadiol-mediated reduction of 3-(4, 5-dimethylthiazo-2-yl)-2,5-diphenyltetrazolium bromide to blue formazan formed per mg protein per minute. Protein was determined in an identical set of test plates by staining with crystal violet. Hepa 1c1c7 cells retain many characteristics of normal issues, particularly the capacity for carcinogen activation and metabolism. They are amenable to precise control of environmental, nutritional, and hormonal factors. […] Induction of QR activity was calculated by comparing the QR specific activity of agent-treated cells with that of solvent-treated cells, and a plot of ratio was generated. CD represents the concentration required to double QR induction. Chemopreventive index (CI) is an indexing value generated by comparing CD with IC50 (concentration for 50% inhibition of cell viability) values.
Induction of Quinone Reductase in Hepa 1c1c7 Cells. […] Modification of the B-ring of chalcones, flavanones, and flavones was hypothesized to induce torsion of the B-ring, and, therefor, simulate out-of-plane distortions characteristic of polycyclic aromatic hydrocarbons, such as DMBA. Induction of QR activity was calculated by comparing the QR specific activity of agent-treated cells with the QR specific activity of solvent-treated cells, and a plot of ratios was generated. CD represents the concentration required for a double fold of induction. CI (Chemopreventive Index) is a value obtained by comparing CD with IC50 (concentration for 50% inhibition of cell viability in […]).

[2] = test system: QR mRNA, Hepa 1c1c7 cells; assay: RT-PCR of QR mRNA in Hepa 1c1c7 cells; format: cell-based, murine
Experimental: RT-PCR Analysis of QR mRNA Expression. Primers were designed based on rat QR gene and custom synthesis. Total RNA was isolated from cultured Hepa 1c1c7 cells with TRIzol® reagent (Life Technologies, Inc.) and quantified using a UV-spectrometer. The reverse transcription of RNA was performed in a final volume of 20 μl containing 5× First Straind Synthesis Buffer (Life Technologies, Inc.), 5 mM MgCl2, 1 mM of each dNTPs, 1 unit Rnase inhibitor (Life Technologies, Inc.), 2.5 units SuperScript II reverse transcriptase (Life Technologies, Inc.), 2.5 μM oligo (dT)16, 0.2 μg total RNA, and DEPC-treated water. After incubation at 47° C. for 30 min, the RT-reaction was terminated by heating to 70° C. for 15 minutes. To the newly synthesized cDNA (1 μL), a PCR reaction mixture (Advantage KlenTaq polymerase Mix, CloneTech) containing 3 mM MgCl2, 2.5 units Taq polymerase, 6 pmol of primers for QR gene (5'-[…]-3'; and 3 pmol of primers for β-actin, 5'-[…]-3'), (5'-[…]-3'; 5'-[…]-3') as internal control was added to bring the final volume to 50 μl. The PCR reaction was heated to 94° C. for 1 min and immediately cycled 27 times through a 30 second denaturing step at 94° C., a 45 second annealing step at 55° C., a 60 second elongation step at 72° C. with Perkin Elmer 2400 themocycler. Following the final cycle, a 5 minute elongation step at 72° C. was performed. Aliquots of the PCR product were electrophoresed on 2.5% agarose gels (Life Technologies, Inc.), and PCR fragments were visualized with ethidium bromide staining, quantified by scanning densitometry, and expressed as folds increase after normalization to β-actin gene expression.
Induction of QR mRNA in Hepa 1c1c7 Cells. […] EHPA 1c1c7 cells were treated with 4'-BF (10 μM) or DMSO (solvent control) for 2, 4, 8, 16, 24, or 48 hours. […] Dose-dependent effects of 4'-BF were analyzed at the time of maximum induction (24 hours), and QR mRNA expression was induced in the concentration range of 0.8-50 μM. In particular, FIG. 2 illustrates RT-PCR analysis of QR mRNA levels in Hepa 1c1c7 cells after treatment with 4'-BF. In FIG. 2(A), Hepa 1c1c7 cells were treated with the indicated concentrations of 4'-BF for 24 hours. In FIG. 2(B), Hepa 1c1c7 cells were treated with 10 μM 4'-BF for the indicated periods of time. Reverse transcription was carried out by SuperScript II reverse transcriptase (Life Technologies, Inc.) and oligo(dT)16. The cDNA was amplified with Advantage Klen Taq polymerase (Clontech) by using QR primers and β-acrin (internal control), aliquots of the PCR product were electrophoresed on 2.5% agarose gels (Bio-Rad), and PCR fragments were visualized with ethidium bromide staining.

O=c1cc(-c2ccc(Br)cc2)oc2ccccc12 [4'-Bromoflavone]
Cq ([1]; Hepa 1c1c7 cells): 0.15 µM
CI, chemoprevention index (IC50/CD) ([1]; IC50/CD, 2880 min): > 17000
EC (2-fold) ([1]; Mus musculus, Hepa-1c1c7, 48 h, Hepa 1c1c7 cells, 48 h, read-out: CD, concentration to double the specific activity of QR): 0.01 µM
times more active than sulforaphane ([1]; compared to sulforaphane): about 40 times
QR mRNA levels ([2]; 0-50 μM for 24 h): significantly increased by 4'-BF at various concentrations
QR mRNA, time course from 8 to 24 hours ([2]; 10 μM): no significant differences from 8 to 24 hours
incubation time after which QR mRNA increased ([2]; 10 μM): 8 h
time of maximum QR mRNA induction ([2]; 10 μM): 24 h
concentration range of QR mRNA induction ([2]; 24 h): 0.8 to 50 µM
